Experimental data from ChEMBL document CHEMBL5252576, “Stictamycin, an Aromatic Polyketide Antibiotic Isolated from a New Zealand Lichen-Sourced Streptomyces Species” (2023).
≈ marks a conversion by molar mass, not a printed value.

Assays:
Assay type in all cases: functional
Settings in all cases: time 16-20 hrs
Staphylococcus aureus = assay: Antibacterial activity against Staphylococcus aureus assessed as inhibition of bacterial growth incubated for 16 to 20 hrs by Mueller-Hinton broth based two-fold serial dilution method
Escherichia coli = assay: Antibacterial activity against TolC-deficient Escherichia coli assessed as inhibition of bacterial growth incubated for 16 to 20 hrs by Mueller-Hinton broth based two-fold serial dilution method
Bacillus subtilis = assay: Antibacterial activity against Bacillus subtilis E168 assessed as inhibition of bacterial growth incubated for 16 to 20 hrs by Mueller-Hinton broth based two-fold serial dilution method

| Structure (SMILES) | MIC (Staphylococcus aureus) | MIC (Escherichia coli) | MIC (Bacillus subtilis) |
| --- | --- | --- | --- |
| CC[C@]1(O)CC(=O)c2c(cc3cccc(O)c3c2O)[C@H]1C(C)=O | 2 µg/mL (≈ 6.36 µM) | 32 µg/mL (≈ 102 µM) | 32 µg/mL (≈ 102 µM) |
| NC[C@H]1O[C@H](O[C@H]2[C@H](O)[C@@H](O[C@H]3O[C@H](CO)[C@@H](O)[C@H](N)[C@H]3O)[C@H](N)C[C@@H]2N)[C@H](O)[C@@H](O)[C@@H]1O [KANAMYCIN] | 1 µg/mL (≈ 2.06 µM) | 2 µg/mL (≈ 4.13 µM) | 2 µg/mL (≈ 4.13 µM) |
